The target of experiment [1] is Kappa-type opioid receptor (Homo sapiens, UniProt P41145). Kind of experiment: Displacement of [3H]U69593 from kappa opioid receptor. On the technique in general: In a radioligand displacement assay an active substance lowers the binding of a labelled ligand.
In experiment [2] the target is Kappa-type opioid receptor (Cavia porcellus, UniProt P41144). Kind of experiment: Displacement of [3H]U69593 from kappa opioid receptor in guinea pig brain membranes after 150 mins by scintillation counting. Type of experiment: cell membranes, Membrane.
Chain of Kappa-type opioid receptor (Cavia porcellus, UniProt P41144) (P41144 whole entry): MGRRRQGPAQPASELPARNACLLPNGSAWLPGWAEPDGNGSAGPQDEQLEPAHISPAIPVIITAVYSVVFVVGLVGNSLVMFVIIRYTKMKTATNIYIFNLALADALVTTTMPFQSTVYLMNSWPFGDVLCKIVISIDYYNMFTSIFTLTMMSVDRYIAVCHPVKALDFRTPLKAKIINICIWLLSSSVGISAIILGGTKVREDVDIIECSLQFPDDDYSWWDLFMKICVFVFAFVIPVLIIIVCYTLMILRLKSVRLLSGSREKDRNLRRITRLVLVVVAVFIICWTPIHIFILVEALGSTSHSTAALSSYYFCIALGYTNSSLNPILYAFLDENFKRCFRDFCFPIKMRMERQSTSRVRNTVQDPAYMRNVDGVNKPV
The next experiment concerns the target Mu-type opioid receptor (Cavia porcellus, UniProt P97266). Kind of experiment: Displacement of [3H]DAMGO from mu opioid receptor in guinea pig brain membranes. Type of experiment: cell membranes, Membrane.
Experiment [3] has as its target Delta-type opioid receptor (Rattus norvegicus, UniProt P33533). Kind of experiment: Displacement of [3H]DPDPE from delta opioid receptor in rat brain membranes. It counts as cell membranes.
In experiment [4] the target is Sigma non-opioid intracellular receptor 1 (Cavia porcellus, UniProt Q60492). Kind of experiment: Displacement of [3H]-(+)-pentazocine from sigma 1 receptor in guinea pig brain membranes. Type of experiment: cell membranes, Membrane.
Chain of Sigma non-opioid intracellular receptor 1 (Q60492 whole entry): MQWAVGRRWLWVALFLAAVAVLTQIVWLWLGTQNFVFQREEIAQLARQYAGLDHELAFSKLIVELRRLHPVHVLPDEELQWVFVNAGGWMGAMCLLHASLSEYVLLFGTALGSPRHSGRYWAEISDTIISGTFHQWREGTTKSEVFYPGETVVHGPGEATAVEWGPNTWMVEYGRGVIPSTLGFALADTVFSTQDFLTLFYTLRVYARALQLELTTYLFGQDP
Experiment [5] can be described thus: Displacement of [3H]di-o-toylguanidine from sigma 2 receptor in rat liver homogenates. Type of experiment: tissue-based.

A value given as a limit tells only on which side of the number the result lay.

Usually Ki stands for a measure of affinity in units of concentration, obtained from inhibition or displacement.

Chain of Delta-type opioid receptor (P33533 whole entry): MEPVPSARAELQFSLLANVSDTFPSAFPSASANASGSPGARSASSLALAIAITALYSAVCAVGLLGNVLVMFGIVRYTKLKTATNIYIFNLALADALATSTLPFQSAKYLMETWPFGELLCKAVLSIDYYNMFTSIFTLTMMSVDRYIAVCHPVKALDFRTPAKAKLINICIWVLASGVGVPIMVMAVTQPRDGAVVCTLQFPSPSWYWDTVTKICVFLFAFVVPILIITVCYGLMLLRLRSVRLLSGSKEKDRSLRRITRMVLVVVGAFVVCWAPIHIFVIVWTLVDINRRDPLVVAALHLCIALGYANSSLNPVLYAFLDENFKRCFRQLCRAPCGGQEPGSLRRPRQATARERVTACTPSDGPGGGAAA
Chain of Mu-type opioid receptor (P97266 whole entry): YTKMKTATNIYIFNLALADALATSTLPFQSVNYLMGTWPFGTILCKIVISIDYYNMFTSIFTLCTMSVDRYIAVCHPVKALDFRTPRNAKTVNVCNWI
Chain of Kappa-type opioid receptor (Homo sapiens, UniProt P41145) (P41145 whole entry): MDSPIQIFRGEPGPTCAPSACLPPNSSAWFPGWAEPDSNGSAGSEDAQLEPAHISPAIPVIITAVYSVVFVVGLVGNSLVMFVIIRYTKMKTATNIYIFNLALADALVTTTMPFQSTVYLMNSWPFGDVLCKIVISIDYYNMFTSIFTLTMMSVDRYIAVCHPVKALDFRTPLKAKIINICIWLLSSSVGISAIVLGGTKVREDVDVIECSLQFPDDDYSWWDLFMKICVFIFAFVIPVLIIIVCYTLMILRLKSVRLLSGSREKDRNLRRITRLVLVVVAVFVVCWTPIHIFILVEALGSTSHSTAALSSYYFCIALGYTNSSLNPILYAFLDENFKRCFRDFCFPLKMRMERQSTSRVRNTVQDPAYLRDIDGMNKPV

Turning to `COC(=O)N1CCN(C(=O)Cc2ccc(Cl)c(Cl)c2)[C@@H]([C@@H](C)N2CCCC2)C1`, in experiment [1], the affinity corresponds to a Ki of 0.31 nM.
The same measure, in the same setting: the result for `COC(=O)N1CCN(C(=O)Cc2ccc(Cl)c(Cl)c2)[C@H](CN2CCCC2)C1` reads 0.45 nM.
For `COC(=O)N1CC2C(N3CCCC3)CCCC1CN2C(=O)Cc1ccc(Cl)c(Cl)c1` (racemic), the Ki in experiment [2] was 333 nM; at Mu-type opioid receptor, over 1000 nM; in experiment [3], over 1000 nM; in experiment [4], 452 nM.
Turning to `COc1ccc(CN2CC3CCCC(N4CCCC4)C2CN3Cc2ccccc2)cc1` (racemic), the Ki in experiment [4] was 531 nM; in experiment [5], over 1000 nM.
In the case of `O=C(Cc1ccc(Cl)c(Cl)c1)N1CC2CCCC(N3CCCC3)C1CN2Cc1ccccc1` (racemic; 14), the Ki in experiment [2] was 378 nM; on Mu-type opioid receptor, over 1000 nM; in experiment [3] it was 150 nM; in experiment [4], 221 nM; in experiment [5], over 1000 nM.
As for `O=C(Cc1ccc(Cl)c(Cl)c1)N1CC2CCCC(N3CCCC3)C1CN2Cc1ccccc1` (racemic; 26), the Ki is 314 nM in experiment [2], over 1000 nM on Mu-type opioid receptor, 324 nM in experiment [3] and 175 nM in experiment [4].
With `O=C(Cc1ccc(Cl)c(Cl)c1)N1CCN2CC[C@@H](N3CCCC3)[C@H]1C2` (relative stereo), in experiment [2], the Ki is over 1000 nM.
Still for that read-out and setting: the result for `O=C(Cc1ccc(Cl)c(Cl)c1)N1CCN2CC[C@H](N3CCCC3)[C@H]1C2` (relative stereo) reads 73 nM.
As for `COC(=O)N1CC2C(N3CCCC3)CCCC1CN2C(=O)Cc1ccc(Cl)c(Cl)c1` (stereo in doubt; 9), the Ki is 65 nM in experiment [2]; over 1000 nM on Mu-type opioid receptor; over 1000 nM in experiment [3]; over 1000 nM in experiment [4]; over 1000 nM in experiment [5].
On to `COc1ccc(CN2CC3CCCC(N4CCCC4)C2CN3Cc2ccccc2)cc1` (stereo in doubt; 25), for which the Ki in experiment [4] turned out to be 238 nM; in experiment [5] it was 203 nM.
For `CC(C)=CCN1CC[C@]2(C)c3cc(O)ccc3C[C@H]1[C@H]2C` [(+)-PENTAZOCINE], affinity in experiment [5] was put at a Ki of 58 nM.

The values above are taken from ChEMBL document CHEMBL1781976, “Synthesis of 7,9-diazabicyclo[4.2.2]decanes as conformationally restricted κ receptor agonists: fine tuning of the dihedral angle of the ethylenediamine pharmacophore” (Eur J Med Chem, 2011).
